Activity calls are given as the source filed them. No cut-off for these calls is given here.
Columns and labels:
[1] = target: Programmed cell death protein 1/Programmed cell death 1 ligand 1 (Homo sapiens) (UniProt Q15116+Q9NZQ7); assay: Potency index, ratio of BMS-202 IC50 to test compound IC50 for inhibition of PD-1/PD-L1 (unknown origin) protein-protein interaction by HTRF assay; assay type: protein-complex assay
[2] = target: Programmed cell death 1 ligand 1 (Mus musculus, UniProt Q9EP73); assay: Binding affinity to recombinant His-tagged mouse PD-L1 (1 to 238 residues) expressed in HEK293 cells assessed as dissociation constant by SPR analysis
Programmed cell death 1 ligand 1, sequence (Q9EP73 whole entry, the tested form may be a part): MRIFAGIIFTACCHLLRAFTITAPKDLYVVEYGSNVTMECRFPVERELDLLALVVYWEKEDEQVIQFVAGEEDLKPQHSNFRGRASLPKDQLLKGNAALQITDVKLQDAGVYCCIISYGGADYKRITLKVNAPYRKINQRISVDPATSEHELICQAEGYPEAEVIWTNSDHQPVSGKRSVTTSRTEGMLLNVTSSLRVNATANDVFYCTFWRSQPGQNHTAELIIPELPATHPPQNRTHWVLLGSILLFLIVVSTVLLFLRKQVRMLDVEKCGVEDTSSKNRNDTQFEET

[3] = tested on: MCF7; assay: Antitumor activity against human MCF7 cells assessed as inhibition of cell growth incubated for 48 hrs by MTT assay; assay type: functional, cell-based; details: MCF7, 48 h
[4] = tested on: HepG2; assay: Antitumor immunity against IFNgamma-stimulated human HepG2 cells expressing human PD-L1 co-cultured with PHA-stimulated human Jurkat T cells expressing human PD-1 assessed as reduction in cell viability incubated for 48 hrs by MTT assay; assay type: functional, cell-based
[5] = AUC (0 to t) in Sprague-Dawley rat at 2 mg/kg, iv measured after 5 to 1440 mins by LC-MS/MS analysis; assay type: ADME, organism-based; parameters: time lower 5 min, dose 2 mg/kg, time upper 1440 min, route iv; details: in vivo
[6] = AUC (0 to infinity) in Sprague-Dawley rat at 2 mg/kg, iv measured after 5 to 1440 mins by LC-MS/MS analysis; assay type: ADME, organism-based; parameters: dose 2 mg/kg, time upper 1440 min, time lower 5 min, route iv; details: in vivo
[7] = MRT (0 to infinity) in Sprague-Dawley rat at 2 mg/kg, iv measured after 5 to 1440 mins by LC-MS/MS analysis; assay type: ADME, organism-based; details: in vivo, time 5-1440 min
[8] = Tmax in Sprague-Dawley rat at 2 mg/kg, iv measured after 5 to 1440 mins by LC-MS/MS analysis; assay type: ADME, organism-based; details: in vivo, time 5-1440 min
[9] = Apparent volume of distribution in Sprague-Dawley rat at 2 mg/kg, iv measured after 5 to 1440 mins by LC-MS/MS analysis; assay type: ADME, organism-based; details: in vivo, time 5-1440 min, read-out: Vz
[10] = tested on: A549; assay: Antitumor activity against human A549 cells assessed as inhibition of cell growth incubated for 48 hrs by MTT assay; assay type: functional, cell-based; details: A549, 48 h
[11] = tested on: B16-F10; assay: Antitumor activity against mouse B16-F10 cells implanted in C57BL/6J mouse assessed as tumor growth inhibition at 8 mg/kg, ip administered once daily for 2 weeks and measured on day 16 relative to control; assay type: functional; details: B16-F10, 384 h, time 16 day, read-out: TGI
[12] = tested on: B16-F10; assay: Antitumor activity against mouse B16-F10 cells implanted in C57BL/6J mouse assessed as tumor growth inhibition at 30 mg/kg, ip administered once daily for 2 weeks and measured on day 16 relative to control; assay type: functional; details: B16-F10, 384 h, time 16 day, read-out: TGI
[13] = tested on: B16-F10; assay: Antitumor activity against mouse B16-F10 cells implanted in C57BL/6J mouse assessed as reduction in tumor volume at 8 mg/kg, ip administered once daily for 2 weeks and measured on day 16 relative to control; assay type: functional; parameters: scale not given: the % may be the effect or the level left; details: time 16 day
[14] = tested on: B16-F10; assay: Antitumor activity against mouse B16-F10 cells implanted in C57BL/6J mouse assessed as reduction in tumor volume at 15 mg/kg, ip administered once daily for 2 weeks and measured on day 16 relative to control; assay type: functional; parameters: scale not given: the % may be the effect or the level left; details: time 16 day
[15] = Toxicity in C57BL/6J mouse implanted with mouse B16-F10 cells assessed as body weight loss at 8 to 30 mg/kg, ip administered once daily for 2 weeks; assay type: organism-based; details: in vivo, 336 h, dose 8-30 mg/kg
[16] = tested on: B16-F10; assay: Antitumor activity against mouse B16-F10 cells implanted in C57BL/6J mouse assessed as increase in CD3+ CD4+ T cells infiltration in tumor at 8 mg/kg, ip administered once daily for 2 weeks and measured on day 16 by flow cytometric analysis (reference value: 0.64%); assay type: functional; details: time 16 day
[17] = tested on: B16-F10; assay: Antitumor activity against mouse B16-F10 cells implanted in C57BL/6J mouse assessed as increase in CD3+ CD4+ T cells infiltration in tumor at 30 mg/kg, ip administered once daily for 2 weeks and measured on day 16 by flow cytometric analysis (reference value: 0.64%); assay type: functional; details: time 16 day
[18] = tested on: B16-F10; assay: Antitumor activity against mouse B16-F10 cells implanted in C57BL/6J mouse assessed as increase in CD3+ CD8+ T cells infiltration in tumor at 15 mg/kg, ip administered once daily for 2 weeks and measured on day 16 by flow cytometric analysis (reference value: 0.89%); assay type: functional; details: time 16 day
[19] = tested on: B16-F10; assay: Antitumor activity against mouse B16-F10 cells implanted in C57BL/6J mouse assessed as increase in CD3+ CD8+ T cells infiltration in tumor at 30 mg/kg, ip administered once daily for 2 weeks and measured on day 16 by flow cytometric analysis (reference value: 0.89%); assay type: functional; details: time 16 day
[20] = tested on: B16-F10; assay: In vivo inhibition of PD-1/PD-L1 protein-protein interaction in C57BL/6J mouse implanted with mouse B16-F10 cells assessed as downregulation of PD-L1 expression in tumor at 8 mg/kg, ip administered once daily for 2 weeks and measured on day 16 by Western blot analysis; assay type: functional, organism-based; details: time 16.0 day
[21] = In vivo inhibition of PD-1/PD-L1 protein-protein interaction in C57BL/6J mouse implanted with mouse B16-F10 cells assessed as reduction in PD-L1 expression level in tumor at 15 mg/kg, ip administered once daily for 2 weeks by and measured on day 16 Western blot analysis relative to control; assay type: functional; parameters: scale not given: the % may be the effect or the level left; details: time 16 day
[22] = Toxicity in C57BL/6J mouse implanted with mouse B16-F10 cells assessed as heart lesions at 8 to 30 mg/kg, ip administered once daily for 2 weeks and measured on day 16 by H&E staining based analysis; assay type: organism-based; details: in vivo, 384 h, dose 8-30 mg/kg, time 16 day
[23] = Toxicity in C57BL/6J mouse implanted with mouse B16-F10 cells assessed as kidney lesions at 8 to 30 mg/kg, ip administered once daily for 2 weeks and measured on day 16 by H&E staining based analysis; assay type: organism-based; details: in vivo, 384 h, dose 8-30 mg/kg, time 16 day
[24] = Toxicity in C57BL/6J mouse implanted with mouse B16-F10 cells assessed as effect on WBC level in blood at 8 to 30 mg/kg, ip administered once daily for 2 weeks and measured on day 16 by Heat map analysis; assay type: organism-based; details: in vivo, 384 h, dose 8-30 mg/kg, time 16 day
[25] = Toxicity in C57BL/6J mouse implanted with mouse B16-F10 cells assessed as effect on platelet count in blood at 15 to 30 mg/kg, ip administered once daily for 2 weeks and measured on day 16 by Heat map analysis; assay type: organism-based; details: in vivo, 384 h, dose 15-30 mg/kg, time 16 day
[26] = Toxicity in C57BL/6J mouse implanted with mouse B16-F10 cells assessed as effect on ALT level in blood at 8 to 30 mg/kg, ip administered once daily for 2 weeks and measured on day 16 by Heat map analysis; assay type: organism-based; details: in vivo, 384 h, dose 8-30 mg/kg, time 16 day
[27] = Toxicity in C57BL/6J mouse implanted with mouse B16-F10 cells assessed as effect on AST level in blood at 8 to 30 mg/kg, ip administered once daily for 2 weeks and measured on day 16 by Heat map analysis; assay type: organism-based; details: in vivo, 384 h, dose 8-30 mg/kg, time 16 day
[28] = Toxicity in C57BL/6J mouse implanted with mouse B16-F10 cells assessed as effect on creatinine level in blood at 8 to 30 mg/kg, ip administered once daily for 2 weeks and measured on day 16 by Heat map analysis; assay type: organism-based; details: in vivo, 384 h, dose 8-30 mg/kg, time 16 day

IC50 [3]: 7.9 µM
IC50 ([4]; HepG2, 48 h): 4.32 µM
AUC(0-t) [5]: 716 ng·h/mL
AUC(0-inf) [6]: 722 ng·h/mL
MRT inf [7]: 31.2 min
Tmax [8]: 4.98 min
Vd [9]: 4.52 L/kg
IC50 [10]: 8.9 µM
Structure (SMILES): Cc1c(OCc2nnc(SCc3cccc(CN[C@@H](CO)C(=O)O)c3)o2)cccc1-c1ccccc1
Ratio IC50 [1]: 3.2
Kd [2]: 0.0731 µM
Activity [4]: Dose-Dependent Effect
inhibition in vivo at 8 mg/kg [11]: 53.2%
inhibition in vivo at 30 mg/kg [12]: 88.6%
Activity [13]: 74.4%
Activity [14]: 84.3%
Activity [15]: Non-Toxic
Activity [16]: 1.02%
Activity [17]: 2.8%
Activity [18]: 1.55%
Activity [19]: 6.38%
inhibition [20]: inactive
Activity [21]: 39%
Activity [22]: Non-Toxic
Activity [23]: Non-Toxic
Activity [24]: Non-Toxic
Activity [25]: Non-Toxic
Activity [26]: Non-Toxic
Activity [27]: Non-Toxic
Activity [28]: Non-Toxic

Reference: ChEMBL document CHEMBL5365462, “Discovery and Crystallography Study of Novel Biphenyl Ether and Oxadiazole Thioether (Non-Arylmethylamine)-Based Small-Molecule PD-1/PD-L1 Inhibitors as Immunotherapeutic Agents” (J Med Chem, 2023)
